The results in this text go back to patent US7977387B2, “Aminobenzophenone compounds” (Leo Pharma A/S, priority 2003, dated 2011).

SMILES strings stand for the structures.

For assay [1], the system named is TNF-α. Description: Inhibition of TNF-α secretion in LPS stimulated peripheral blood mononuclear cells. The class given is cell-based. To be noted: PBMC; LPS stimulated human peripheral blood mononuclear cells, 18 hours, ELISA; read-out: The median inhibition concentration (IC50, nM) of TNF-α. Put shortly:
(§1)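 Human PBMCs (5×10^5 cells/ml, RPMI 1640 + 2% FCS) pre-treated with compound 30 min, then stimulated with LPS ([…]) for 18 h. Secreted IL-1β and TNF-α quantified by ELISA; IC50 values calculated.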

Assay [2] relates to IL-1β. Briefly: Inhibition of IL-1β secretion in LPS stimulated peripheral blood mononuclear cells. The class given is cell-based. To be noted: PBMC; LPS stimulated human peripheral blood mononuclear cells, 18 hours, ELISA; read-out: The median inhibition concentration (IC50, nM) of IL-1β. Put shortly:
as §1
(In general: In an ELISA, binding on a coated surface is turned into a signal by an enzyme label.)

The test system of assay [3] is LPS induced TNF-α response. Briefly: In vivo screening model of LPS induced TNF-α response in mice. The settings on record: Mus musculus, mice (C3H/HeN), dosed 1 hour prior to LPS, plasma TNF-α 80-90 minutes after LPS, vs LPS treated control group, read-out: In vivo inhibition of LPS induced TNF-α production (in %). The protocol:
In Vivo Screening Model of LPS Induced TNF-α Response in Mice
To study the effect of compounds of the present invention in vivo, an in vivo screening model of LPS induced TNF-α response in mice was set up as follows: Groups of 6 mice (C3H/HeN, female, about 8 weeks (20 g), Bomholtgaard) were dosed with test compounds in suspension vehicle 1 hour prior to LPS administration (LPS from E. coli 055:B5, L-4005, Sigma). At time 0, the mice were dosed ip with 1.0 mg LPS/kg. After anesthetization with Hypnorm/Dormicum, the mice were bled from the periorbital venous plexus 80-90 minutes after LPS administration. The blood samples were sampled in EDTA stabilised tubes and centrifuged at 4000 rpm for 10 minutes at 4° C. The plasma level of TNF-α was analysed by ELISA. Compound 156 of WO 98/32730 was used as reference compound. The plasma level of TNF-α was determined using a sandwich ELISA. Microtiter plates were coated with a monoclonal antibody against mouse TNF-α, washed and blocked with a casein buffer. Samples of mouse TNF-α recombinant standards were added to the wells of the microtiter plates and incubated. All standards were tested in triplicate, all plasma samples in single. After sample and standard incubation, the plates were washed and incubated with biotinylated polyclonal secondary antibody against mouse TNF-α and washed. Enzyme conjugate was added to all wells and incubated. Substrate was added and the enzyme/substrate reaction stopped after 15 minutes at room temperature with 1M H2SO4. The colour development (OD) was measured at 450 nm on an ELISA reader and the background OD at 620 nm was subtracted. […] The results of the tested compounds are indicated as a percentage inhibition compared to an LPS treated control group. Compounds were tested at 10 mg/kg. The Mann-Whitney test was used to compare drug treated groups to the LPS treated control group (p<0.05).

With `Cc1ccc(C(=O)NCCO)cc1C(=O)c1ccc(Nc2ccc(Br)cc2N)cc1Cl` [Compound 113, 3-[4-(2-Amino-4-bromophenylamino)-2-chlorobenzoyl]-N-(2-hydroxyethyl)-4-methylbenzamide], the IC50 in assay [1] is 1.8 nM; in assay [2], 4 nM. For the same compound, in assay [3], the inhibition – broadly, how much of the control response was suppressed – at 10 mg/kg came out at 83%.

In the case of `CCNC(=O)c1ccc(C)c(C(=O)c2ccc(Nc3ccc(Cl)cc3F)cc2Cl)c1` [Compound 126, 3-[2-Chloro-4-(4-chloro-2-fluoro-phenylamino)-benzoyl]-N-ethyl-4-methyl-benzamide], the IC50 in assay [1] worked out at 0.6 nM; in assay [2] it was 2.8 nM. Further, in assay [3], the inhibition at 10 mg/kg stood at 79%.

Take `COc1ccc(C(=O)NCC(O)CO)cc1C(=O)c1ccc(Nc2ccccc2)cc1Cl` (stereo not drawn) [Compound 202, 3-(2-Chloro-4-phenylamino-benzoyl)-N-(2,3-dihydroxy-propyl)-4-methoxy-benzamide]: the values for the IC50 in assay [1] and in assay [2] were 2 nM and 5 nM, respectively. Also, the inhibition at 10 mg/kg in assay [3] came out at 67%.

With `Cc1ccc(C(=O)NC(C)(C)CO)cc1C(=O)c1ccc(Nc2ccc(F)cc2F)cc1Cl` [Compound 156, 3-[2-Chloro-4-(2,4-difluoro-phenylamino)-benzoyl]-N-(2-hydroxy-1,1-dimethyl-ethyl)-4-methyl-benzamide], the results for the IC50 in assay [1] and in assay [2] were 0.9 nM and 4.5 nM, respectively. Further, the inhibition at 10 mg/kg in assay [3] was 73%.

In the case of `COc1ccc(C(=O)NCCO)cc1C(=O)c1ccc(Nc2c(F)cccc2F)cc1Cl` [Compound 173, 3-[2-Chloro-4-(2,6-difluoro-phenylamino)-benzoyl]-N-(2-hydroxy-ethyl)-4-methoxy-benzamide], the IC50 was determined as 2 nM in assay [1] and 2.5 nM in assay [2]. Besides, the inhibition at 10 mg/kg in assay [3] was determined as 90%.

In the case of `C=CCNC(=O)c1ccc(C)c(C(=O)c2ccc(Nc3ccc(F)cc3F)cc2Cl)c1` [Compound 170, N-Allyl-3-[2-chloro-4-(2,4-difluoro-phenylamino)-benzoyl]-4-methyl-benzamide], the results for the IC50 in assay [1] and in assay [2] were 2.5 nM and 3.2 nM, respectively. Moreover, the inhibition at 10 mg/kg in assay [3] was determined as 87%.

As for `Cc1ccc(NC(=O)NC2CCCCC2)cc1C(=O)c1ccc(Nc2ccc(F)cc2F)cc1Cl` [Compound 266, 1-{3-[2-Chloro-4-(2,4-difluoro-phenylamino)-benzoyl]-4-methyl-phenyl}-3-cyclohexyl-urea], the IC50 in assay [1] is 0.4 nM; in assay [2], 0.9 nM. Further, the inhibition at 10 mg/kg in assay [3] amounted to 54%.

On to `C=CCOC(=O)Nc1ccc(C)c(C(=O)c2ccc(Nc3ccc(F)cc3F)cc2Cl)c1` [Compound 278, {3-[2-Chloro-4-(2,4-difluoro-phenylamino)-benzoyl]-4-methyl-phenyl}-carbamic acid allyl ester], for which the IC50 in assay [1] was determined as 0.6 nM; in assay [2] it was 1.3 nM. In addition, the inhibition at 10 mg/kg in assay [3] came to 65%.

As for `Cc1cc(F)ccc1Nc1ccc(C(=O)c2cc(C(=O)NCC3CCCO3)ccc2C)c(Cl)c1` (stereo not drawn) [Compound 104, 3-[2-Chloro-4-(4-fluoro-2-methylphenylamino)benzoyl]-4-methyl-N-(tetrahydrofuran-2-ylmethyl)benzamide], the IC50 in assay [1] was 1.3 nM; in assay [2], 2 nM. Moreover, in assay [3], the inhibition at 10 mg/kg came out at 95%.

`Cc1ccc(C(=O)NCCCO)cc1C(=O)c1ccc(Nc2ccc(F)cc2F)cc1Cl` [Compound 155, 3-[2-Chloro-4-(2,4-difluoro-phenylamino)-benzoyl]-N-(3-hydroxy-propyl)-4-methyl-benzamide]: the IC50 was determined as 0.2 nM in assay [1] and 0.6 nM in assay [2]. Also, the inhibition at 10 mg/kg in assay [3] was found to be 91%.

For the compound `COc1ccc(C(=O)NC(C)(C)CO)cc1C(=O)c1ccc(Nc2c(F)cccc2F)cc1Cl` [Compound 178, 3-[2-Chloro-4-(2,6-difluoro-phenylamino)-benzoyl]-N-(2-hydroxy-1,1-dimethyl-ethyl)-4-methoxy-benzamide], the IC50 came out at 1.6 nM in assay [1] and 6.3 nM in assay [2]. Besides, in assay [3], the inhibition at 10 mg/kg was 67%.

For the compound `Cc1ccc(C(=O)NCCO)cc1C(=O)c1ccc(Nc2ccc(Cl)cc2F)cc1Cl` [Compound 120, 3-[2-Chloro-4-(4-chloro-2-fluoro-phenylamino)-benzoyl]-N-(2-hydroxy-ethyl)-4-methyl-benzamide], the IC50 in assay [1] came out at 2 nM; in assay [2], 2.7 nM. Moreover, the inhibition at 10 mg/kg in assay [3] is 86%.

`COCCNC(=O)c1ccc(C)c(C(=O)c2ccc(Nc3ccccc3N)cc2Cl)c1` [Compound 116, 3-[4-(2-Aminophenylamino)-2-chlorobenzoyl]-N-(2-methoxyethyl)-4-methylbenzamide]: the IC50 in assay [1] and in assay [2] was 1 nM each time. Besides, the inhibition at 10 mg/kg in assay [3] came out at 95%.

`CCC(CO)NC(=O)c1ccc(C)c(C(=O)c2ccc(Nc3ccc(F)cc3F)cc2Cl)c1` (stereo not drawn) [Compound 153, 3-[2-Chloro-4-(2,4-difluoro-phenylamino)-benzoyl]-N-(1-hydroxymethyl-propyl)-4-methyl-benzamide]: the IC50 in assay [1] was determined as 1.6 nM; in assay [2], 8.9 nM. The inhibition at 10 mg/kg in assay [3] was 86%.

For `Cc1ccc(C(=O)NCC(C)C)cc1C(=O)c1ccc(Nc2ccc(Cl)cc2F)cc1Cl` [Compound 129, 3-[2-Chloro-4-(4-chloro-2-fluoro-phenylamino)-benzoyl]-N-isobutyl-4-methyl-benzamide], the IC50 in assay [1] was 1.3 nM; in assay [2], 2.5 nM. In assay [3], the inhibition at 10 mg/kg was 73%.

For `Cc1ccc(NC(=O)NCCO)cc1C(=O)c1ccc(Nc2ccc(F)cc2F)cc1Cl` [Compound 260, 1-{3-[2-Chloro-4-(2,4-difluoro-phenylamino)-benzoyl]-4-methyl-phenyl}-3-(2-hydroxy-ethyl)-urea], the IC50 is 0.5 nM in assay [1] and 1.8 nM in assay [2]. The inhibition at 10 mg/kg in assay [3] came out at 95%.

For the compound `Cc1cc(Br)ccc1Nc1ccc(C(=O)c2cc(C(=O)NCCO)ccc2C)c(Cl)c1` [Compound 114, 3-[4-(4-Bromo-2-methylphenylamino)-2-chlorobenzoyl]-N-(2-hydroxyethyl)-4-methylbenzamide], the IC50 in assay [1] worked out at 0.4 nM; in assay [2], 2.5 nM. In addition, the inhibition at 10 mg/kg in assay [3] came out at 72%.

Consider `Cc1ccc(C(=O)NCC(N)=O)cc1C(=O)c1ccc(Nc2ccc(F)cc2F)cc1Cl` [Compound 145, N-Carbamoylmethyl-3-[2-chloro-4-(2,4-difluoro-phenylamino)-benzoyl]-4-methyl-benzamide], for which the IC50 in assay [1] turned out to be 0.3 nM; in assay [2], 1.3 nM. Besides, the inhibition at 10 mg/kg in assay [3] stood at 94%.

Take `Cc1ccc(C(=O)NCCO)cc1C(=O)c1ccc(Nc2cccc(F)c2C)cc1Cl` [Compound 186, 3-[2-Chloro-4-(3-fluoro-2-methyl-phenylamino)-benzoyl]-N-(2-hydroxy-ethyl)-4-methyl-benzamide]: the figures for the IC50 in assay [1] and in assay [2] were 0.5 nM and 0.8 nM, respectively. Moreover, in assay [3], the inhibition at 10 mg/kg worked out at 92%.

`COc1ccc(C(=O)NCC(O)CO)cc1C(=O)c1ccc(Nc2ccc(F)cc2)cc1Cl` (stereo not drawn) [Compound 198, 3-[2-Chloro-4-(4-fluoro-phenylamino)-benzoyl]-N-(2,3-dihydroxy-propyl)-4-methoxy-benzamide]: the IC50 in assay [1] was found to be 0.4 nM; in assay [2], 1.1 nM. Besides, in assay [3], the inhibition at 10 mg/kg came to 76%.

For `Cc1ccc(C(=O)NCC(O)CO)cc1C(=O)c1ccc(Nc2ccc(F)cc2F)cc1Cl` (stereo not drawn) [Compound 152, 3-[2-Chloro-4-(2,4-difluoro-phenylamino)-benzoyl]-N-(2,3-dihydroxy-propyl)-4-methyl-benzamide], the results for the IC50 in assay [1] and in assay [2] were 0.6 nM and 2.8 nM, respectively. Further, in assay [3], the inhibition at 10 mg/kg came to 99%.

On to `COCCCNC(=O)c1ccc(C)c(C(=O)c2ccc(Nc3ccc(Cl)cc3F)cc2Cl)c1` [Compound 131, 3-[2-Chloro-4-(4-chloro-2-fluoro-phenylamino)-benzoyl]-N-(3-methoxy-propyl)-4-methyl-benzamide], for which the values for the IC50 in assay [1] and in assay [2] were 1.3 nM and 3.2 nM, respectively. Besides, the inhibition at 10 mg/kg in assay [3] amounted to 70%.

On to `CCNC(=O)c1ccc(C)c(C(=O)c2ccc(Nc3ccc(F)cc3F)cc2Cl)c1` [Compound 149, 3-[2-Chloro-4-(2,4-difluoro-phenylamino)-benzoyl]-N-ethyl-4-methyl-benzamide], for which the IC50 is 0.5 nM in assay [1] and 1.6 nM in assay [2]. The inhibition at 10 mg/kg in assay [3] was found to be 89%.
